Reference: the NIST ThermoML archive (doi:10.1007/s10765-006-0063-0)
Numbers after ± are expanded uncertainties.

Tests used:
[1] = xn = mol fraction of the nth substance listed; conditions: 101 kPa, Liquid, Sing-around technique in a fixed-path interferometer
[2] = 101.33 kPa, Liquid; for speed of sound: Sing-around technique in a fixed-path interferometer

C1CCCC1 [cyclopentane] + C1COCCO1
[1]
Conditions | speed of sound [m/s]
283.15 K, x2 = 0.0516 | 1280.7 ± 2.3
283.15 K, x2 = 0.095 | 1279.4 ± 2.3
283.15 K, x2 = 0.1944 | 1280.5 ± 2.2
283.15 K, x2 = 0.2987 | 1286 ± 2.2
283.15 K, x2 = 0.3973 | 1294.2 ± 2.2
283.15 K, x2 = 0.499 | 1305.8 ± 2.2
283.15 K, x2 = 0.6003 | 1320.5 ± 2.1
283.15 K, x2 = 0.7063 | 1339.6 ± 2.1
283.15 K, x2 = 0.8072 | 1361 ± 2.1
283.15 K, x2 = 0.9076 | 1385.1 ± 2.1
283.15 K, x2 = 0.9528 | 1397 ± 2.1
298.15 K, x2 = 0.0488 | 1204.5 ± 2.3
298.15 K, x2 = 0.0945 | 1203.8 ± 2.3
298.15 K, x2 = 0.1818 | 1205.5 ± 2.2
298.15 K, x2 = 0.2983 | 1211.9 ± 2.2
298.15 K, x2 = 0.3959 | 1221.4 ± 2.2
298.15 K, x2 = 0.4962 | 1234.1 ± 2.2
298.15 K, x2 = 0.6067 | 1251.5 ± 2.1
298.15 K, x2 = 0.7034 | 1269.8 ± 2.1
298.15 K, x2 = 0.811 | 1293.3 ± 2.1
298.15 K, x2 = 0.9025 | 1316.4 ± 2.1
298.15 K, x2 = 0.9506 | 1329.6 ± 2.1
313.15 K, x2 = 0.0449 | 1128.5 ± 2.3
313.15 K, x2 = 0.094 | 1128.3 ± 2.3
313.15 K, x2 = 0.195 | 1131.3 ± 2.2
313.15 K, x2 = 0.2962 | 1138.6 ± 2.2
313.15 K, x2 = 0.3969 | 1149.5 ± 2.2
313.15 K, x2 = 0.4983 | 1163.6 ± 2.1
313.15 K, x2 = 0.5994 | 1180.8 ± 2.1
313.15 K, x2 = 0.6987 | 1200.2 ± 2.1
313.15 K, x2 = 0.8026 | 1223.8 ± 2.1
313.15 K, x2 = 0.9066 | 1250.8 ± 2.1
313.15 K, x2 = 0.9482 | 1263 ± 2.1

C1COCCO1 [1,4-dioxane] + c1ccccc1
[1]
Conditions | speed of sound [m/s]
283.15 K, x1 = 0.0521 | 1370.8 ± 2.1
283.15 K, x1 = 0.0942 | 1372.6 ± 2.1
283.15 K, x1 = 0.1987 | 1376.5 ± 2.1
283.15 K, x1 = 0.2956 | 1380.2 ± 2.1
283.15 K, x1 = 0.3936 | 1383.8 ± 2.1
283.15 K, x1 = 0.4947 | 1387.4 ± 2.1
283.15 K, x1 = 0.5964 | 1391.1 ± 2.1
283.15 K, x1 = 0.6956 | 1395.1 ± 2.1
283.15 K, x1 = 0.7963 | 1399.3 ± 2.1
283.15 K, x1 = 0.8949 | 1404.1 ± 2.1
283.15 K, x1 = 0.9526 | 1407.1 ± 2.1
298.15 K, x1 = 0.0516 | 1300.8 ± 2.1
298.15 K, x1 = 0.0888 | 1302.4 ± 2.1
298.15 K, x1 = 0.1966 | 1307.3 ± 2.1
298.15 K, x1 = 0.316 | 1312.2 ± 2.1
298.15 K, x1 = 0.4145 | 1316.3 ± 2.1
298.15 K, x1 = 0.5004 | 1320 ± 2.1
298.15 K, x1 = 0.5975 | 1324.1 ± 2.1
298.15 K, x1 = 0.6932 | 1328.4 ± 2.1
298.15 K, x1 = 0.7962 | 1333.1 ± 2.1
298.15 K, x1 = 0.8938 | 1338 ± 2.1
298.15 K, x1 = 0.9535 | 1341.1 ± 2.1
313.15 K, x1 = 0.0568 | 1232.1 ± 2.1
313.15 K, x1 = 0.0913 | 1233.6 ± 2.1
313.15 K, x1 = 0.2021 | 1239.2 ± 2.1
313.15 K, x1 = 0.2963 | 1243.7 ± 2.1
313.15 K, x1 = 0.3981 | 1248.6 ± 2.1
313.15 K, x1 = 0.4975 | 1253.1 ± 2.1
313.15 K, x1 = 0.5981 | 1257.9 ± 2.1
313.15 K, x1 = 0.6972 | 1262.7 ± 2.1
313.15 K, x1 = 0.7941 | 1267.5 ± 2.1
313.15 K, x1 = 0.9034 | 1273.3 ± 2.1
313.15 K, x1 = 0.9424 | 1275.5 ± 2.1

C1COCCO1 [1,4-dioxane]
[2]
Conditions | mass density [kg/m3] | speed of sound [m/s]
283.15 K | 1045.2 ± 0.5 | 1409.6 ± 2.1
298.15 K | 1027.9 ± 0.4 | 1343.6 ± 2.1
313.15 K | 1011 ± 0.4 | 1278.8 ± 2.1

C1CCCC1 [cyclopentane]
[2]
Conditions | mass density [kg/m3] | speed of sound [m/s]
283.15 K | 754.9 ± 1.5 | 1283.5 ± 2.3
298.15 K | 739.7 ± 1.5 | 1206.6 ± 2.3
313.15 K | 724.7 ± 1.6 | 1129.9 ± 2.3

C1CCCC1 [cyclopentane] + C1COCO1
[1]
Conditions | speed of sound [m/s]
283.15 K, x2 = 0.101 | 1277.3 ± 2.3
283.15 K, x2 = 0.2019 | 1275.8 ± 2.3
283.15 K, x2 = 0.3024 | 1278.6 ± 2.3
283.15 K, x2 = 0.4023 | 1285 ± 2.3
283.15 K, x2 = 0.5028 | 1295.3 ± 2.3
283.15 K, x2 = 0.6 | 1307.9 ± 2.3
283.15 K, x2 = 0.6995 | 1325.7 ± 2.3
283.15 K, x2 = 0.796 | 1347.3 ± 2.3
283.15 K, x2 = 0.8999 | 1375.7 ± 2.3
298.15 K, x2 = 0.0998 | 1201.4 ± 2.3
298.15 K, x2 = 0.1993 | 1200.8 ± 2.3
298.15 K, x2 = 0.3005 | 1204.5 ± 2.3
298.15 K, x2 = 0.4041 | 1212 ± 2.3
298.15 K, x2 = 0.5024 | 1222.7 ± 2.3
298.15 K, x2 = 0.6002 | 1236.4 ± 2.3
298.15 K, x2 = 0.7004 | 1255.5 ± 2.3
298.15 K, x2 = 0.7988 | 1278.8 ± 2.3
298.15 K, x2 = 0.8992 | 1307.4 ± 2.3
313.15 K, x2 = 0.1028 | 1125.3 ± 2.3
313.15 K, x2 = 0.2032 | 1125.9 ± 2.3
313.15 K, x2 = 0.3014 | 1130.2 ± 2.3
313.15 K, x2 = 0.403 | 1138.5 ± 2.3
313.15 K, x2 = 0.5008 | 1150 ± 2.3
313.15 K, x2 = 0.6008 | 1165.5 ± 2.3
313.15 K, x2 = 0.6991 | 1184.8 ± 2.3
313.15 K, x2 = 0.7991 | 1209 ± 2.3
313.15 K, x2 = 0.8987 | 1237.8 ± 2.3

C1CCCCC1 [cyclohexane]
[2]
Conditions | mass density [kg/m3] | speed of sound [m/s]
283.15 K | 788 ± 0.3 | 1327.8 ± 2.1
298.15 K | 773.7 ± 0.3 | 1254.4 ± 2.1
313.15 K | 759.6 ± 0.3 | 1181.1 ± 2.1

c1ccccc1 [benzene]
[2]
Conditions | mass density [kg/m3] | speed of sound [m/s]
283.15 K | 889.9 ± 0.2 | 1368.7 ± 2.1
298.15 K | 873.5 ± 0.2 | 1298.3 ± 2.1
313.15 K | 857.5 ± 0.2 | 1229.5 ± 2.1
